Patent publication US20070116743A1, “Dietary supplement enhancing the muscular energy metabolism, comprising an alkanoyl carnitine and ribose” (Sigma-Tau Industrie Farmaceutiche Riunite S.p.A., priority 2000, published 2007)

Tests used:
[1] = system: ventricular arrhythmias induced by left coronary ligation in the rat; test: Experimental myocardial anoxia test: ventricular arrhythmias induced by left coronary ligation; assay type: in vivo; details: for N. of ectopic contractions during 30 minutes after ligation / Start of arrhythmias after: rat, left coronary ligation, slow injection into left ventricle 15 minutes before ligation (100 mg/kg each agent; carnitine combination 25 mg/kg per component); for Reduction in number of ectopic contractions compared to controls (in words): summary of Table 2
Description: Experimental Myocardial Anoxia Test
Adopting the technique described by Selych (Selych et al., Angiology, 11, 398, 1960) and modified by Clark (Clark C., J. Pharmacol. Methods, 3, 357, 1980), these tests were used to evaluate the protective activity of isovaleryl L-carnitine, propionyl L-carnitine, carnitine combination, ribose and various combinations of the same against ventricular arrhythmias induced by left coronary ligation in the rat.
Coronary occlusion and the resulting myocardial anoxia lead, after 5-8 minutes, to the onset of arrhythmias. In these tests, ventricular ectopic contractions were counted for a period of 30 minutes after ligation both in control rats and in rats that had received slow injections into the left ventricle, 15 minutes before ligation, of a solution containing isovaleryl L-carnitine alone (100 mg/kg), propionyl L-carnitine alone (100 mg/kg), or carnitine combination alone consisting of propionyl L-carnitne (25 mg/kg), acetyl L-carnitine (25 mg/kg) and isovaleryl L-carnitine (25 mg/kg) or ribose alone (100 mg/kg), or a combination of ribose plus isovaleryl L-carnitine or propionyl L-carnitine or a combination of ribose plus carnitine combination at the doses described above.

[2] = system: papillary muscle of rabbit heart; test: Test of ATP concentrations in papillary muscle of heart subjected to anoxia; assay type: in vivo, New Zealand rabbits; details: summary of Table 1
Description: Test of ATP Concentrations in Heart Subjected to Anoxia In this test the technique adopted was the one using papillary muscle of rabbit heart perfused and subjected to anoxia which, as is known, leads to an impoverishment of its ATP energy reserves. […] At the end of the third day of treatment, all the animals were sacrificed and their hearts excised. Sections of papillary muscle measuring 1 mm in diameter and 4-5 mm in thickness were isolated from the excised hearts. The isolated papillary muscle was perfused in a thermostatic bath with a saturated 100% O2 solution. The anoxic state was obtained by introducing 100% N2 instead of O2 into the bath. For the measurement of the ATP concentrations in the […] muscle the method described by […] was adopted ([…]. Methods in Enzymology 111 N.Y. Acad. Press., 879, 1957).

Compound | N. of ectopic contractions during 30 minutes after ligation [1] | Start of arrhythmias after [1] [min] | Reduction in number of ectopic contractions compared to controls (in words) [1] | Protection of ATP in papillary muscle against anoxia (in words) [2]
CC(C)CC(=O)O[C@H](CC(=O)[O-])C[N+](C)(C)C [Isovaleryl L-carnitine] | 860 ± 75 | 5 to 7 | only slight reductions | partly protecting
CCC(=O)O[C@H](CC(=O)[O-])C[N+](C)(C)C [Propionyl L-carnitine] | 830 ± 86 | 5 to 8 | only slight reductions | partly protecting
O=C[C@H](O)[C@H](O)[C@H](O)CO [Ribose] | 855 ± 110 | 5 to 7 | only slight reductions | partly protecting
